According to patent US4071528A, “Certain thiazolidine and tetrahydrothiazine compounds” (May & Baker Limited, priority 1975, dated 1978):
Like-named read-outs stand apart in the source and are kept apart here.

Legend:
[1] = tested on: Nippostrongylus brasiliensis; assay: Activity against roundworms in rats, A.2: treatment 24 hours after infection, post-mortem worm counts; type: in vivo; details: 144 h, treated 24 hours after infection, read-out: % Reduction of mean worm load
Procedure: In the Tables of results "s.c." means subcutaneous and the doses are expressed in mg/kg animal body weight. […] A.2. Rats were infected with 100 Nippostrongylus brasiliensis larvae each, by the subcutaneous route. After 24 hours the rats were randomised and allotted to groups of 5 animals each, ready for treatment. Doses of the test compound were then administered to each group by the oral or subcutaneous route, one group of 10 animals being left untreated as a control. All the rats were killed for post-mortem worm counts 6 days after dosing. The activities, expressed in terms of the percentage reduction in mean worm load of the treated groups compared with the untreated control group, are given below in Table II.

[2] = tested on: Cooperia oncophora and Ostertagia ostertagi; assay: C.1 Activity against Cooperia oncophora and Ostertagia ostertagi in their adult stages in calves, faecal egg counts; type: in vivo; details: s.c. (methanesulphonate salt)
Procedure: In the Tables of results "s.c." means subcutaneous and the doses are expressed in mg/kg animal body weight. […] C.1. Activity against Cooperia oncophora and Ostertagia ostertagi in their adult stages in calves. Worm-free, 6-7 week old calves were each infected with 15,000 C. oncophora and 15,000 O. ostertagi larvae. Approximately 3 weeks later, doses of the test compound were administered to each group of 2 animals by the subcutaneous route, one group of two animals being left untreated as a control. Individual faecal egg counts were determined 1 day before treatment and 5-7 days after treatment.

[3] = tested on: Nippostrongylus brasiliensis; assay: Activity against roundworms in rats, A.1: treatment 6 days after infection (patent infection), post-mortem worm counts; type: in vivo; details: 48 h, treated 6 days after infection, read-out: % Reduction of mean worm load
Procedure: In the Tables of results "s.c." means subcutaneous and the doses are expressed in mg/kg animal body weight. […] A.1. Rats were infected with 100 Nippostrongylus brasiliensis larvae each, by the subcutaneous route. After 6 days, when the infection was patent, the rats were randomised and allotted to groups of 5 animals each, ready for treatment. One group was used for each dose level of the test compound, which was administered by the oral or subcutaneous route, and in each experiment, one group of 10 animals was left untreated as a control. All the rats were killed for post-mortem worm counts 48 hours after treatment. The activities, expressed in terms of the percentage reduction in mean worm load of the treated groups compared with the untreated group, are shown in Table I.

[4] = Oral acute toxicity (LD50) in mice; details: mouse, in vivo, observed during next 6 days
Description: Mice were each treated orally with one of the compounds of formula I, and they were observed during the next 6 days. The LD50 figures obtained (doses lethal to 50% of mice tested) are shown in Table VII, expressed in mg/kg animal body weight.

Fasciola hepatica = assay: D. Activity against mature and immature liver flukes in sheep; type: in vivo; details: oral 25 mg/kg in gelatin capsules; for Mean % Reduction, Immature flukes: immature flukes in rest of liver; for Mean % Reduction, Mature flukes: mature flukes in bile ducts
Procedure: D. Activity against mature and immature liver flukes in sheep On the first day of the experiment a group of sheep were each infected with 300 metacercariae of liver fluke Fasciola hepatica and on the 56th day they were each infected with a further 300 metacercariae of F. hepatica. On day 70 of the experiment, doses of the test compounds of 25 mg/kg animal body weight were administered orally in gelatin capsules to groups of two animals per compound. One group of two animals was left untreated as controls. On day 98 of the experiment, all the sheep were killed. The number of mature flukes present in the bile ducts and the numbers of immature flukes present in the rest of the liver were counted. The activities, expressed in terms of the percentage reduction in mean fluke burdens compared with the untreated controls, are shown below in Table VI.

Mycosphaerella pinodes = assay: Minimum effective concentration totally inhibiting fungal growth, Mycosphaerella pinodes, potato dextrose agar tubes; type: cell-based; details: Didymella pinodes, 48 h; total inhibition of fungal growth; tested at 50, 10 or 2 ppm; 25° C, 2 days
Procedure: Test tubes containing 4.0 ml of molten potato dextrose agar at about 50° C were inoculated with 0.5 ml of suspension of test compound and 0.5 ml of fungal suspension delivered from a sterile syringe to give a final concentration of each compound of 50, 10 or 2 ppm. Two replicate tubes were inoculated with each fungal species. After the addition of test compounds and fungal inoculum to the molten medium the tubes were sloped and the agar was allowed to set. The tubes were incubated at 25° C for either 2 days (Mycosphaerella pinodes) or 3 days (Helminthosporium avenae). […] The suspensions of test compounds were prepared by grinding 0.025 g of test compound with sterile distilled water containing 0.1 ml of 0.1% Texofor FX170 wetting agent, followed by dilution to the concentration desired. The inoculum of Mycosphaerella pinodes was prepared as follows: A one to two week old culture on Coon's agar on plates was scraped off with a glass rod and sterile distilled water and filtered through muslin. The filtrate, containing the spores, was used for inoculation.

[5] = sc, s.c. (methanesulphonate salt, aqueous)

Structure (SMILES)	inhibition in vivo at 50 mg/kg ([1]; oral) [%]	inhibition in vivo at 50 mg/kg [1, 5] [%]	% Reduction of mean egg count ([2]; 15 mg/kg) [%]	inhibition in vivo at 100 mg/kg ([3]; oral) [%]	inhibition in vivo at 100 mg/kg [3, 5] [%]	LD50 at 144 h [4] [mg/kg]	inhibition in vivo at 12.5 mg/kg ([1]; oral) [%]	inhibition in vivo at 100 mg/kg ([1]; oral) [%]	inhibition in vivo at 100 mg/kg [1, 5] [%]	further results
C=CCSc1ccc(N2C(=O)CSC2=NC(=O)OC)c(NC(=O)CN(C)C)c1 [B, 3-[4-allylthio-2-(2-dimethylaminoacetamido)phenyl]-2-methoxycarbonyliminothiazolidin-4-one]	98	97	44	97	90	> 1000	–	–	–	–
CCSc1ccc(N2C(=O)CSC2=NC(=O)OC)c(NC(=O)CN(C)C)c1 [C, 3-[4-ethylthio-2-(2-dimethylaminoacetamido)phenyl]-2-methoxycarbonyliminothiazolidin-4-one]	90	98	100	74	89	> 1000	81	–	–	inhibition in vivo at 12.5 mg/kg [1, 5]: 86%; Mean % Reduction, Immature flukes (Fasciola hepatica): 85%; Mean % Reduction, Mature flukes (Fasciola hepatica): 72%
CCN(CC)CC(=O)Nc1cc(Sc2ccccc2)ccc1N1C(=O)CSC1=NC(=O)OC [Compound D, 3-[2-(2-diethylaminoacetamido)-4-phenylthiophenyl]-2-methoxycarbonyliminothiazolidin-4-one]	98	100	98	99	88	> 1000	96	–	–	inhibition in vivo at 25 mg/kg [1, 5]: 96%; Mean % Reduction, Immature flukes (Fasciola hepatica): 75%; Mean % Reduction, Mature flukes (Fasciola hepatica): less than 50%
COC(=O)N=C1SCC(=O)N1c1cc(Sc2ccccc2)ccc1NC(=O)CN(C)C [Compound E, 3-[2-(2-dimethylaminoacetamido)-5-phenylthiophenyl]-2-methoxycarbonyliminothiazolidin-4-one]	95	99	100	65	54	> 1000	–	–	–	MIC (Mycosphaerella pinodes): < 2 µg/mL
COC(=O)N=C1SCC(=O)N1c1ccc(SCC2CCCCC2)cc1NC(=O)CN(C)C [F, 3-[4-cyclohexylmethylthio-2-(2-dimethylaminoacetamido)phenyl]-2-methoxycarbonyliminothiazolidin-4-one]	–	–	–	–	–	–	–	59	46	% Reduction of mean egg count ([2]; 25 mg/kg): 50%
CCCCSc1ccc(N2C(=O)CSC2=NC(=O)OC)c(NC(=O)CN(C)C)c1 [G, 3-[4-n-butylthio-2-(2-dimethylaminoacetamido)phenyl]-2-methoxycarbonyliminothiazolidin-4-one]	98	100	–	96	84	> 1000	95	–	–	inhibition in vivo at 12.5 mg/kg [1, 5]: 96%
COC(=O)N=C1SCC(=O)N1c1ccc(SC2CCCC2)cc1NC(=O)CN(C)C [I, 3-[4-cyclopentylthio-2-(2-dimethylaminoacetamido)phenyl]-2-methoxycarbonyliminothiazolidin-4-one]	–	–	–	–	–	> 1000	–	96	99	inhibition in vivo at 25 mg/kg ([1]; oral): 97%; inhibition in vivo at 25 mg/kg [1, 5]: 87%
CCCCCSc1ccc(N2C(=O)CSC2=NC(=O)OC)c(NC(=O)CN(C)C)c1 [J, 3-[2-(2-dimethylaminoacetamido)-4-n-pentylthiophenyl]-2-methoxycarbonyliminothiazolidin-4-one]	99	99	–	59	–	> 1000	–	99	99	–
CCCSc1ccc(N2C(=O)CSC2=NC(=O)OC)c(NC(=O)CN(C)C)c1 [K, 3-[2-(2-dimethylaminoacetamido)-4-n-propylthiophenyl]-2-methoxycarbonyliminothiazolidin-4-one]	97	98	85	–	–	> 1000	–	–	–	inhibition in vivo at 3.125 mg/kg ([1]; oral): 92%; inhibition in vivo at 3.125 mg/kg [1, 5]: 96%; inhibition in vivo at 50 mg/kg ([3]; oral): 99%; inhibition in vivo at 50 mg/kg [3, 5]: 96%
COC(=O)N=C1SCC(=O)N1c1ccc(Sc2ccccc2)cc1NC(=O)CCN(C)C [L, 3-[2-(3-dimethylaminopropionamido)-4-phenylthiophenyl]-2-methoxycarbonyliminothiazolidin-4-one]	81	90	84	90	–	> 1000	–	–	–	–
